# Experimental data: patent US12662518B2, “Engineered peptide and peptide mimetic compositions and methods” (The Wistar Institute of Anatomy and Biology, priority 2019, dated 2026)
# “Also recorded” adds a separate entry of the source. Ends that are not written are not given here. Peptide text beside a SMILES is read from it.
# Key:
# PC3 cells [1] = experiment: mitochondrial membrane potential in tumor cells, TMRE, time-lapse videomicroscopy and flow cytometry; format: cell-based, human; details: 10 μM, single-cell time-lapse videomicroscopy or whole cell population
# Protocol: Analysis of mitochondrial membrane potential. […] In some experiments, PC3 cells were treated with cell-permeable scrambled peptide or cell-permeable MFF #8-11 peptide, washed three times in PBS, pH 7.4, and analyzed on a FACSCalibur flow cytometer, with the TMRE signal as FL1. Intact cells were gated in the FSC/SSC plot to exclude small debris. Cells treated with 20 μM FCCP 10 min prior to TMRE staining were used as a negative control. The resulting FL1 data were plotted on a histogram. For quantification of membrane potential of purified mitochondria, mitochondria isolated from PC3 cells (50 μg) were suspended in 400 μl of SB buffer (0.2 M sucrose, 10 mM Tris-MOPS, pH 7.4, 5 mM succinate, 1 mM sodium phosphate, 10 μM EGTA-Tris, 2 μM rotenone). […] After two washes with SB buffer, mitochondria were recovered by centrifugation at 6000×g for 10 min, suspended in 100 μl of SB buffer and mitochondrial membrane potential was quantified on a florescence microplate reader (Ex/Em=535/595 nm, Beckman Coulter). […]
# For time-lapse videomicroscopy, PC3 cells (2×10^4) growing in high optical-quality glass bottom chambered 8-well cell culture slides (MatTek Corporation) were stained with 100 nM TMRE (Abcam) and 50 nM MitoTracker Green FM (Life Technologies) for 20 min. […] A minimum of 100 cells were analyzed from 2 independent experiments. […]
# [2] = tested on: prostate cancer cell types (LNCaP, C4-2B, PC3, DU145); experiment: cell death of prostate cancer cells, CellTox reactivity; format: cell-based, human; details: for tumor cell death / viability: PC3 / prostate cancer cells, 0-50 μM
# Protocol: (§2) Cell death and apoptosis. […] The various cell-permeable MFF peptides were examined for induction of cytotoxicity using a CellTOX Green cytotoxicity assay kit (Promega). Briefly, 10^4 normal or tumor cells in 100 μl complete medium were plated on white opaque 96-well plate. […] Lysis Solution in the assay kit was used as cytotoxicity control (100% cell death) and treatment with PBS was used as a control for 100% cell viability.
# glioblastoma LN229 cells = experiment: cell death of glioblastoma cells; format: cell-based, human
# Description: (§1) Cell death and apoptosis.
# [3] = tested on: normal prostatic epithelial cells (BPH-1); experiment: cell death of normal prostatic epithelial cells; format: cell-based, human; details: 0-40 μM, 2 h
# Description: as §1
# [4] = tested on: normal human foreskin fibroblasts (HFF); experiment: cell death of normal fibroblasts; format: cell-based; details: 0-40 μM
# Description: as §1
# DU145 or PC3 cells = experiment: release of HMGB1 and cyclophilin A from tumor cells, Western blotting; format: cell-based, human; details: marker of necrosis
# [5] = tested on: patient-derived glioblastoma (GBM) neurospheres; experiment: patient-derived glioblastoma (GBM) neurospheres, calcein / To-Pro viability; format: cell-based; details: 10-50 μM, 1, 3 or 24 h; scrambled 50 μM
# Description: Glioblastoma (GBM) neurospheres. Primary, patient-derived GBM neurospheres were isolated and maintained in culture essentially as described (Senft, D. & Ronai, Z. A. Regulators of mitochondrial dynamics in cancer. Curr Opin Cell Biol 39, 43-52 (2016)). Tissue samples were obtained from chemotherapy- or radiotherapy-naïve patients with confirmed histological diagnosis of WHO grade IV glioma (GBM) undergoing treatment at the Neurosurgery Division of Fondazione IRCCS Ca' Granda Ospedale Maggiore Policlinco (Milan, Italy). Written informed consent was obtained from all patients. Neurospheres were cyto-spinned on charged slides (Thermo Scientific, Waltham, Mass.) and treated with cell-permeable scrambled peptide (50 μM) or cell-permeable retro-inverso D-enantiomer MFF peptide (10-50 μM) for up to 24 h. Control-normalized changes in cell viability under the various conditions were determined by the ratio of Calcein (alive) and To-Pro (dead) staining and fluorescence microscopy (Eclipse Ti-E, Nikon Instruments, Florence, Italy).
# [6] = tested on: patient-derived NSCLC organoids; experiment: patient-derived NSCLC organoids, Ki-67 and cleaved caspase-3 immunohistochemistry; format: cell-based, human; details: 50-100 μM, 24 h
# [7] = tested on: patient-derived breast adenocarcinoma organoids; experiment: patient-derived breast adenocarcinoma organoids, Ki-67 and cleaved caspase-3 immunohistochemistry; format: cell-based, human; details: 50-100 μM, 24 h
# [8] = tested on: NSCLC A549 and H460 or breast adenocarcinoma MDA-231 and MCF-7 cells; experiment: NSCLC and breast adenocarcinoma cell lines, TMRE flow cytometry and CellTox cell death; format: cell-based, human; details: A549, H460, MDA-231, MCF-7 cells, 10-25 μM
# PC3 cells [9] = experiment: cytochrome c release from tumor cells, Western blotting; format: cell-based, human; details: supernatants vs mitochondrial extracts
# [10] = tested on: immortalized wild type (WT) mouse embryonic fibroblasts (MEF); experiment: cell death of wild type MEF; format: cell-based; details: 10-50 μM
# Description: as §1
# CypD^−/− MEF = experiment: cell death of CypD-/- MEF; format: cell-based, mouse; details: 25 μM
# Description: as §1
# [11] = tested on: drug-sensitive and drug-resistant melanoma cells; details: isogenic pairs, CellTox reactivity
# Protocol: as §2
Molecule,loss of mitochondrial membrane potential (PC3 cells [1]),tumor cell death / viability [2],killing of GBM LN229 cells (glioblastoma LN229 cells; 0-40 μM),cell death of normal prostatic epithelial cells [3],cell death of normal fibroblasts (HFF) [4],HMGB1 release from tumor cells (DU145 or PC3 cells),cytotoxicity for patient-derived GBM neurospheres (loss of cell viability) [5],"apoptosis / cell death markers (cleaved caspase-3^+ cells), NSCLC organoids [6]","cell proliferation (Ki-67^+ cells), NSCLC organoids [6]","apoptosis / cell death markers (cleaved caspase-3^+ cells), breast adenocarcinoma organoids [7]","cell proliferation (Ki-67^+ cells), breast adenocarcinoma organoids [7]",tumor cell death ([8]; CellTox),mitochondrial membrane potential ([8]; TMRE),cytochrome c release from tumor cells (PC3 cells [9]),"IC50 ([2]; prostate cancer cell types, read-out: IC50, cell killing) [µM]","IC50 (glioblastoma LN229 cells; glioblastoma, read-out: IC50, cell killing) [µM]",cyclophilin A (CypA) release from tumor cells (DU145 or PC3 cells),cell death of WT MEF [10],cell death of CypD^−/− MEF (CypD^−/− MEF),cell death of drug-sensitive and drug-resistant melanoma cells [11]
cell-permeable scrambled peptide: cell-permeable control scrambled peptide #8-11 (SEQ ID NO: 22) (SSQLRYLARSQRITIQLIAGS; also: cell-permeable moiety),not,did not kill normal or prostate cancer cells,did not cause LN229 cell killing,did not kill normal or prostate cancer cells,did not kill normal or prostate cancer cells,had no effect on HMGB1 release; also recorded: did not induce HMGB1 release,not,had no effect,had no effect,had no effect,had no effect,had no effect,had no effect,,,,,,,
CC[C@H](C)[C@H](NC(=O)CNC(=O)[C@H](CCCNC(=N)N)NC(=O)[C@H](C)NC(=O)[C@H](CO)NC(=O)[C@H](CCCCN)NC(=O)[C@H](CCSC)NC(=O)[C@H](CCCNC(=N)N)NC(=O)[C@H](CCCNC(=N)N)NC(=O)[C@H](CC(N)=O)NC(=O)[C@H](CCC(N)=O)NC(=O)[C@H](Cc1ccccc1)NC(=O)[C@H](Cc1c[nH]c2ccccc12)NC(=O)[C@@H](NC(=O)[C@H](CCCCN)NC(=O)[C@@H](NC(=O)[C@H](CCC(N)=O)NC(=O)[C@H](CCCNC(=N)N)NC(=O)CCCCCNC(=O)CCCC[C@@H]1SC[C@@H]2NC(=O)N[C@@H]21)[C@@H](C)CC)[C@@H](C)CC)C(=O)N[C@@H](CC(C)C)C(=O)N[C@@H](CO)C(=O)N[C@@H](CC(C)C)C(=O)N[C@H](C(=O)N[C@@H](CCC(N)=O)C(=O)N[C@@H](CO)C(=O)N[C@@H](CO)C(=O)N[C@H](C(=O)N[C@@H](CCCNC(=N)N)C(=O)N[C@@H](CCCNC(=N)N)C(=O)N[C@@H](C)C(=O)N[C@@H](Cc1ccc(O)cc1)C(=O)N[C@@H](CCC(N)=O)C(=O)N[C@@H](CCC(N)=O)C(=O)N[C@H](C(=O)N[C@@H](CC(C)C)C(=O)O)[C@@H](C)CC)[C@@H](C)O)[C@@H](C)CC [cell-permeable MFF peptide #8-11] (HELM PEPTIDE1{[O=C1N[C@H]2[C@H](CS[C@H]2CCCCC(=O)[*:2])N1].[O=C(CCCCCN[*:1])[*:2]].R.Q.I.K.I.W.F.Q.N.R.R.M.K.S.A.R.G.I.L.S.L.I.Q.S.S.T.R.R.A.Y.Q.Q.I.L}$$$$V2.0; N-terminus and C-terminus assumed),induced acute loss of mitochondrial membrane potential; also recorded: induced sudden loss of mitochondrial membrane potential,efficiently killed tumor cells in a time- and concentration-dependent manner,,,,induced the release of HMGB1 and cyclophilin A (CypA),,,,,,,,induced cytochrome c release,~10,~10,induced the release of HMGB1 and cyclophilin A (CypA),killed immortalized wild type (WT) mouse embryonic fibroblasts (MEF) in a concentration-dependent manner; also recorded: efficiently killed WT MEF in a time- and concentration-dependent response,abolished cell death,comparably killed
